Patent US20240124488A1, “AZA-CRYPTOPHANES, PROCESSES FOR PREPARATION THEREOF, AND THEIR USES” (UNIVERSITE DE CAEN NORMANDIE, priority 2021, published 2024)
Values joined by “and” are separate entries in the source; they are usually repeats but may differ in a detail not shown here. Equal entries are not always repeated. Where two headings read alike, the source gives them in different places. Blank lines part the entries; values can stand above or below the compound they belong to.

Experiments:
[1] = Cavity size by X-ray crystallography; assay type: physicochemical; details: crystals by slow evaporation in dichloromethane at 4° C.
Method: Crystallographic data of both anti and syn cryptophanes 1N were obtained by slow evaporation in dichloromethane at 4° C. The anti compound has a cavity size of 137.0 Å^3 and the syn compound has a cavity size of 121.4 Å^3, both larger than the size of the prior art cryptophane C (114.5 Å^3).
Anti cryptophanes 1N crystals were also obtained by slow evaporation in anisole, which is too large to enter the cage. This enabled to visualise the conformation of the cryptophane 1N and the size of its cavity without caged compound. The size of the empty cavity is between 85.4 and 86.8 Å^3.

[2] = Encapsulation efficiency by UV spectrophotometry; assay type: physicochemical
Method: Cryptophanes concentration were defined using spectrophotometry (Infinite M200, Tecan, Mannedorf, Switzerland) by determining absorbance spectrum of Crytophane in solution in MeOH.
The encapsulation efficiency (EE) was determined after filtration through 0.2 μm syringe filters (Minisart® Syringe Filter, Sartorius, Goettingen, Germany) to remove unentrapped cryptophanes. Then, these samples were diluted in methanol (1/100, v/v) and the concentration of cryptophane was determined by spectrophotometry at 288 nm. The EE was determined in duplicate and calculated as follows: […]
A UV calibration curve for each of the compounds was carried out (see protocol above) using a stock solution of Cr1N in acetonitrile (1.05 mg/mL) and a stock solution of cryptophane A in DMSO (1.85 mg/mL), solutions subsequently diluted in methanol.
The batch of nanoemulsions loaded with Cr1N was diluted 100-fold in methanol. Under these conditions, it was confirmed by DLS that the nanoemulsions were destroyed. The amount of cryptophane in this sample was then determined. The concentration of cryptophane in the sample was 28 μM, i.e. an encapsulation efficiency of 60%.

[3] = 129Xe NMR xenon encapsulation; assay type: binding; details: 5 bars, CDCl3, 278 K
Description: FIG. 1 illustrates the ^129Xe NMR spectrum (5 bars, CDCl3) of cryptophane-1N 12.
^129Xe NMR (5 bars, CDCl3): illustrated in FIG. 1.

[4] = physchem; details: organic solvent or mixture
[5] = prior art cryptophane; cited from earlier work
[6] = Experimental solubility in organic solvents

cavity size [1]: 121.4 Å^3
Compound: COc1cc2c3cc1OCCOc1ccc4c(c1)Cc1ccc5cc1Nc1ccc(cc1C4)OCCOc1cc(c(cc1OC)Cc1cc(c(OC)cc1C3)OCCO5)C2 [Cryptophane-1N Syn]

amount loaded into nanoemulsions relative to cryptophane A [2]: more than twice as much | solubility ([4]; Experimental solubility in CHCl3): > 8.27 mM | solubility ([4]; Experimental solubility in DMSO): > 59500 µg/mL and > 73800 µM | solubility ([4]; Experimental solubility in MeCN): > 2.23 mM | cavity size [1]: 137.0 Å^3
Compound: COc1cc2c3cc1OCCOc1ccc4c(c1)Cc1ccc5cc1Nc1ccc(cc1C4)OCCOc1cc(c(cc1OC)C3)Cc1cc(OC)c(cc1C2)OCCO5 [Cryptophane-1N]
Xenon encapsulation [3]: successfully encapsulate xenon

Compound: cryptophane C
cavity size [5]: 114.5 Å^3

Experimental solubility in MeCN [6]: very poorly soluble
Compound: COc1cc2c3cc1OCCOc1cc4c(cc1OC)Cc1cc5c(OC)cc1Cc1cc(c(OC)cc1C4)OCCOc1cc(c(cc1OC)C3)Cc1cc(OC)c(cc1C2)OCCO5 [Cryptophane A]
